# Tested on: carrageenan-induced thermal hypersensitivity
# Test: Rat carrageenan induced thermal hyperalgesia model of inflammatory pain
# Format: in vivo
# Description: Rat Carrageenan Induced Thermal Hyperalgesia Model of Inflammatory Pain.
# Male Wistar rats were assessed for thermal pain sensitivity by applying a focused light beam onto the hind paws and recording the time to paw withdrawal, before and after local intraplantar administration of carrageenan. After 3 h. thermal pain sensitivity was reassessed in treated and untreated hind paws prior to dosing with test compound or vehicle. Indomethacin was administered as a positive control.
# Male Sprague Dawley rats were tail-marked, and acclimatized to the plantar boxes on 3 separate occasions (6, 5 and 1 day prior to the test day) for at least 5 min on each occasion. […] The latency to withdraw both left and right hindpaws from the heat source was determined on 2 occasions (3 min apart). The mean across the 2 challenges was recorded as the baseline for each animal. Rats 18 and 30 were not used in the study as they had very high baseline readings, and they were replaced by 61 and 63. […]
# For example, the compound of Example 13 above was tested as follows: Rats were dosed with intraplantar carrageenan at t=0; the compound of Example 13 (1, 3 & 10 mg/kg po) or vehicle (5% EtOH: 95% (1% methylcellulose in water) at t=2 h; indomethacin (10 mg/kg ip) or vehicle at t=2.5 h and thermal sensitivity was measured at t=3 h. Thus all rats received both oral and ip dosing.
smiles,measurement,setting,value
"O=C(Nc1cccnn1)N1CC(Oc2ccc(-c3ccccc3)cn2)C1 [Example 13, 3-(5-Phenyl-pyridin-2-yloxy)-azetidine-1-carboxylic acid pyridazin-3-ylamide]",pain sensitivity relative to normal levels,"1, 3, 10 mg/kg p.o., rat",did not reduce pain sensitivity to below normal levels
same,statistical significance of inhibition cf. vehicle/carrageenan group,"at 3 and 10 mg/kg doses p.o., one way ANOVA followed by Newman-Keuls post hoc tests",reached statistical significance
